Measurements as given in the supplement of paper PMC5579334.
± gives the standard deviation of the averaged measurements.

Key:
[1] = tested on: HSC1 (primary human Schwann cells); assay: drug sensitivity score (DSS, CellTox-Green cytotoxicity, 72 h) (DSS (dimensionless)); higher = more cytotoxic; extreme values may be limits of the assay
Procedure, shortened: (§1)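 MPNST cell lines and primary human Schwann cells were grown for 72 h at 37 °C in 384-well plates containing five 10-fold compound dilutions. CellTox-Green, added before seeding at a final 1:1000 dilution, gave fluorescence from DNA released by disrupted cells, and signals were scaled to vehicle and positive-control wells. Curves were fitted with a four-parameter logistic model. Drug sensitivity score and relative IC50 come from these fits, with IC50 censored at the top concentration.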

STS26T [2] = assay: as above
Procedure, shortened: as §1

ST8814 [3] = assay: as above
Procedure, shortened: as §1

S1507-2 [4] = assay: as above
Procedure, shortened: as §1

[5] = tested on: HSC2 (primary human Schwann cells); assay: as above
Procedure, shortened: as §1

HS-PSS [6] = assay: as above
Procedure, shortened: as §1

[7] = tested on: HSC1 (primary human Schwann cells); assay: % inhibition of CellTiter-Glo viability at highest tested concentration (72 h), relative to DMSO and benzethonium chloride controls; higher = more inhibition
Procedure, shortened: (§2)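 Viability of MPNST cell lines and primary human Schwann cells was read as CellTiter-Glo ATP luminescence after 72 h at 37 °C, 5% CO2, in 384-well plates seeded with 750–1000 cells per well. Each compound had been preprinted at five concentrations in 10-fold steps. Signals were scaled between vehicle and positive-control wells, duplicates averaged where present, and fitted with four-parameter logistic curves. Drug sensitivity score and relative IC50 (censored at the top concentration) come from those fits, and percent inhibition is taken at the top concentration.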

STS26T [8] = assay: as above
Procedure, shortened: as §2

HS-Sch-2 [9] = assay: as above
Procedure, shortened: as §2

YST-1 [10] = assay: as above
Procedure, shortened: as §2

ST8814 [11] = assay: as above
Procedure, shortened: as §2

S1507-2 [12] = assay: as above
Procedure, shortened: as §2

[13] = tested on: HSC2 (primary human Schwann cells); assay: as above
Procedure, shortened: as §2

HS-PSS [14] = assay: as above
Procedure, shortened: as §2

S462 [15] = assay: as above
Procedure, shortened: as §2

[16] = tested on: HSC1 (primary human Schwann cells); assay: drug sensitivity score (DSS, CellTiter-Glo viability, 72 h) (DSS (dimensionless)); higher = more sensitive; extreme values may be limits of the assay
Procedure, shortened: as §2

STS26T [17] = assay: as above
Procedure, shortened: as §2

HS-Sch-2 [18] = assay: as above
Procedure, shortened: as §2

YST-1 [19] = assay: as above
Procedure, shortened: as §2

ST8814 [20] = assay: as above
Procedure, shortened: as §2

S1507-2 [21] = assay: as above
Procedure, shortened: as §2

[22] = tested on: HSC2 (primary human Schwann cells); assay: as above
Procedure, shortened: as §2

HS-PSS [23] = assay: as above
Procedure, shortened: as §2

S462 [24] = assay: as above
Procedure, shortened: as §2

Row | SMILES | drug sensitivity score [1] | drug sensitivity score (STS26T [2]) | drug sensitivity score (ST8814 [3]) | drug sensitivity score (S1507-2 [4]) | drug sensitivity score [5] | drug sensitivity score (HS-PSS [6]) | % inhibition [7] | % inhibition (STS26T [8]) | % inhibition (HS-Sch-2 [9]) | % inhibition (YST-1 [10]) | % inhibition (ST8814 [11]) | % inhibition (S1507-2 [12]) | % inhibition [13] | % inhibition (HS-PSS [14]) | % inhibition (S462 [15]) | drug sensitivity score [16] | drug sensitivity score (STS26T [17]) | drug sensitivity score (HS-Sch-2 [18]) | drug sensitivity score (YST-1 [19]) | drug sensitivity score (ST8814 [20]) | drug sensitivity score (S1507-2 [21]) | drug sensitivity score [22] | drug sensitivity score (HS-PSS [23]) | drug sensitivity score (S462 [24])
1 | CN1CCN(c2nc(C3=C(c4c[nH]c5ccccc45)C(=O)NC3=O)c3ccccc3n2)CC1 [Sotrastaurin] (max concentration tested 10000 nM) | 0 | 0 | 0 | 0 | 0 | 0 | -32.7% | -3.71% | 5.75% | 17.7% | 7.08% | 6.26 ± 6.6% | -36.1% | 3.47% | 11.8 ± 2% | 0 | 0 | 0 | 0.45 | 0.337 | 0.00765 ± 0.011 | 0 | 0 | 0.0588 ± 0.083
2 | C=CC[C@@H]1/C=C(\C)C[C@H](C)C[C@H](OC)[C@H]2O[C@@](O)(C(=O)C(=O)N3CCCC[C@H]3C(=O)O[C@H](/C(C)=C/[C@@H]3CC[C@@H](O)[C@H](OC)C3)[C@H](C)[C@@H](O)CC1=O)[C@H](C)C[C@@H]2OC [Tacrolimus] (max concentration tested 10000 nM) | 0 | 0 | 0 | 0 | 0 | 0 | 19.9% | 8.77% | -0.54% | 7.06% | 13.4% | 6.29 ± 12% | 5.26% | 8.62% | 1.38 ± 2.8% | 0.469 | 0 | 0 | 0 | 0.177 | 0.168 ± 0.24 | 0 | 0 | 0
3 | C=CCn1c(=O)c2cnc(Nc3ccc(N4CCN(C)CC4)cc3)nc2n1-c1cccc(C(C)(C)O)n1 [MK1775] (max concentration tested 10000 nM) | 5.21 | 20.3 | 14.6 | 16.1 ± 1.9 | 9.17 | 0.11 | 67.6% | 96.8% | 88.4% | 82.5% | 89.8% | 83.3 ± 2% | 85.9% | 49.6% | 107.2 ± 0.38% | 14.4 | 16.4 | 23.8 | 14.7 | 15.8 | 16.3 ± 1.6 | 17 | 6.59 | 24.5 ± 0.65
4 | CCN(CC)CCOc1ccc(/C(=C(/Cl)c2ccccc2)c2ccccc2)cc1 [Clomifene] (max concentration tested 10000 nM) | 0 | 6.15 | 6.68 | 4.48 ± 1.9 | 7.92 | 5.71 | 25.9% | 92.4% | 98.5% | 44.2% | 96.9% | 95.46 ± 0.71% | 91.5% | 87.8% | 77.6 ± 2.6% | 2.36 | 6.27 | 5.21 | 1.77 | 6.53 | 6.57 ± 0.14 | 6.36 | 6.39 | 5.36 ± 0.27
5 | COc1cc2nccc(Oc3ccc(NC(=O)Nc4cc(C)on4)c(Cl)c3)c2cc1OC [Tivozanib] (max concentration tested 10000 nM) | 0.17 | 1.82 | 1.94 | 0.631 ± 0.89 | 0 | 0 | 67.7% | 45.5% | 51.3% | 58.2% | 36.2% | 42.795 ± 0.006% | 73.9% | 46.2% | 58.9 ± 1.3% | 5.86 | 3.66 | 2.18 | 4.22 | 0 | 10.5 ± 0.46 | 6.35 | 2 | 6.863 ± 0.013
6 | CO[C@H]1C[C@@H]2CC[C@@H](C)[C@@](O)(O2)C(=O)C(=O)N2CCCC[C@H]2C(=O)O[C@H]([C@H](C)C[C@@H]2CC[C@@H](OP(C)(C)=O)[C@H](OC)C2)CC(=O)[C@H](C)/C=C(\C)[C@@H](O)[C@@H](OC)C(=O)[C@H](C)C[C@H](C)/C=C/C=C/C=C/1C [Ridaforolimus] (max concentration tested 100 nM) | 0 | 0 | 0 | 0 | 0 | 0 | 51.5% | 48.8% | 31% | 43.6% | 32.1% | 35.9 ± 0.46% | 52.6% | 28.6% | 40.4 ± 5.1% | 16.8 | 13.1 | 4.49 | 9.63 | 8.41 | 7.07 ± 0.28 | 15.8 | 5.02 | 8.13 ± 1.3
7 | COc1cc2c(N3CCN(C(=O)Nc4ccc(OC(C)C)cc4)CC3)ncnc2cc1OCCCN1CCCCC1 [Tandutinib] (max concentration tested 1000 nM) | 0 | 0 | 0 | 0 | 0 | 0 | 2.98% | 6.33% | -3.01% | -3.87% | 8.58% | 9.56 ± 1.9% | -9.62% | 7.75% | 0.414 ± 5.6% | 0 | 0 | 0 | 0 | 0 | 0.0556 ± 0.079 | 0 | 0 | 0
8 | Cc1c(Cn2c(C)nc3c(C(=O)O)cc(N4CCOCC4)cc32)cccc1C(F)(F)F (max concentration tested 10000 nM) | 0 | 0 | 0 | 0 | 0 | 0 | 4.46% | 17.6% | 8.95% | 4.11% | 11.8% | 33.6 ± 5.3% | 5.2% | 19.4% | 3.26 ± 4.3% | 0 | 0.72 | 0 | 0 | 0.197 | 3.59 ± 0.27 | 0 | 1.06 | 0
9 | c1ccc([C@H]2CN3CCSC3=N2)cc1 [Levamisole] (max concentration tested 10000 nM) | 0 | 0 | 0 | 0 | 0 | 0 | -1.64% | 6.7% | -7.3% | 0.96% | -0.0528% | -5.81 ± 3.8% | 4.5% | -6.64% | 0.12 ± 8.6% | 0 | 0 | 0 | 0 | 0 | 0 | 0 | 0 | 0
10 | Nc1ccn([C@@H]2O[C@H](CO)[C@@H](O)C2(F)F)c(=O)n1 [Gemcitabine] (max concentration tested 1000 nM) | 23.3 | 19.3 | 21 | 14.3 ± 2 | 18.5 | 7.61 | 85% | 83.8% | 75% | 76.7% | 96.5% | 86.1 ± 3.8% | 84.5% | 70.2% | 99.9 ± 2.2% | 26.5 | 28.3 | 25.2 | 19.7 | 27.7 | 31.7 ± 4.1 | 27.7 | 14.7 | 40.2 ± 1
11 | CC(C)Cn1cnc2c(N)nc3ccccc3c21 [Imiquimod] (max concentration tested 2500 nM) | 0 | 0 | 0 | 0 | 0 | 0 | -1.61% | 3.07% | 16.9% | 4.76% | -6.88% | -4.77 ± 3.7% | 6.67% | 14.8% | 1.41 ± 6.7% | 0 | 0 | 0.45 | 0 | 0 | 0 | 0 | 0.9 | 0
12 | Clc1ccc(C(c2ccccc2Cl)C(Cl)Cl)cc1 (stereo not drawn) [Mitotane] (max concentration tested 10000 nM) | 0 | 0 | 0 | 3.77 ± 5.3 | 0 | 0 | 4.91% | 4.66% | 1.46% | 0.23% | 6.22% | 2.14 ± 4.9% | 1.58% | -3.05% | 2.7 ± 7.9% | 0 | 0 | 0 | 0 | 0 | 0 | 0 | 0 | 0
